Data on 2 molecules can be found in ChEMBL document CHEMBL4610120, “New Broad-Spectrum Antibiotics Containing a Pyrrolobenzodiazepine Ring with Activity against Multidrug-Resistant Gram-Negative Bacteria” (J Med Chem, 2020).

The term MIC denotes the lowest concentration found to suppress growth.

The test system of data set [1] is Klebsiella pneumoniae. The experiment in a line: Ratio of MIC for multidrug-resistant Klebsiella pneumoniae NCTC 13368-7-R1 measured after 10 passages to MIC for multidrug-resistant Klebsiella pneumoniae NCTC 13368-7-R1 measured after 10 passages in presence of membrane permeabilizer PMBN. It counts as functional.
For data set [2], the system named is Klebsiella pneumoniae. The data set is described as follows: Ratio of MIC for multidrug-resistant Klebsiella pneumoniae NCTC 13368-7-R2 measured after 10 passages to MIC for multidrug-resistant Klebsiella pneumoniae NCTC 13368-7-R2 measured after 10 passages in presence of efflux pump inhibitor PAbetaN. The class given is functional.
The subject of data set [3] is Klebsiella pneumoniae. The experiment in a line: Antimicrobial activity against Klebsiella pneumoniae M6 by microdilution broth method. The class given is functional.
Data set [4] concerns Klebsiella pneumoniae. The data set is described as follows: Antimicrobial activity against multidrug-resistant Klebsiella pneumoniae NCTC 13368 by microdilution broth method. It counts as functional.
The subject of data set [5] is Pseudomonas aeruginosa. The data set is described as follows: Antimicrobial activity against multidrug-resistant Pseudomonas aeruginosa NCTC 13437 by microdilution broth method. It counts as functional.
Data set [6] has as its system Acinetobacter baumannii. The data set is described as follows: Antimicrobial activity against multidrug-resistant Acinetobacter baumannii NCTC 13424 by microdilution broth method. It counts as functional. A general note: Dilution methods test growth across graded concentrations, often in twofold steps.
Data set [7] relates to Acinetobacter baumannii. The experiment in a line: Antimicrobial activity against multidrug-resistant Acinetobacter baumannii NCTC 13302 by microdilution broth method. The class given is functional.
For data set [8], the system named is Acinetobacter baumannii. The data set is described as follows: Antimicrobial activity against multidrug-resistant Acinetobacter baumannii UKA2 by microdilution broth method. The class given is functional.
The test system of data set [9] is Acinetobacter baumannii. The experiment in a line: Antimicrobial activity against multidrug-resistant Acinetobacter baumannii W1 by microdilution broth method. It counts as functional.
For data set [10], the system named is Acinetobacter baumannii. The experiment in a line: Bactericidal activity against Acinetobacter baumannii AYE assessed as reduction in viable bacterial count at 4 times MIC measured up to 24 hrs by Miles-Misra dilution method based time-kill assay. It counts as functional, organism-based.
For data set [11], the system named is Klebsiella pneumoniae. The data set is described as follows: Bactericidal activity against multidrug-resistant Klebsiella pneumoniae NCTC 13368 assessed as reduction in viable bacterial count at 4 times MIC measured after 6 hrs by Miles-Misra dilution method based time-kill assay. The class given is functional, organism-based.
In data set [12] the test system is Klebsiella pneumoniae. The data set is described as follows: Bactericidal activity against multidrug-resistant Klebsiella pneumoniae NCTC 13368 assessed as reduction in viable bacterial count at 4 times MIC measured after 24 hrs by Miles-Misra dilution method based time-kill assay. The class given is functional, organism-based.
Data set [13] relates to Klebsiella pneumoniae. The data set is described as follows: Antibacterial activity against multidrug-resistant Klebsiella pneumoniae NCTC 13368-7-R1 measured after 10 passages by microdilution broth method. The class given is functional.
For data set [14], the system named is Klebsiella pneumoniae. The data set is described as follows: Antibacterial activity against multidrug-resistant Klebsiella pneumoniae NCTC 13368-7-R2 measured after 10 passages by microdilution broth method. The class given is functional.
The test system of data set [15] is Klebsiella pneumoniae. The experiment in a line: Antibacterial activity against multidrug-resistant Klebsiella pneumoniae NCTC 13368-7-R1 measured after 10 passages in presence of efflux pump inhibitor CCCP by microdilution broth method. The class given is functional.
Data set [16] relates to Klebsiella pneumoniae. The experiment in a line: Antibacterial activity against multidrug-resistant Klebsiella pneumoniae NCTC 13368-7-R2 measured after 10 passages in presence of efflux pump inhibitor CCCP by microdilution broth method. It counts as functional.
Data set [17] has as its system Klebsiella pneumoniae. The data set is described as follows: Antimicrobial activity against multidrug-resistant Klebsiella pneumoniae NCTC 13438 in presence of efflux pump inhibitor CCCP by microdilution broth method. It counts as functional.
In data set [18] the test system is Acinetobacter baumannii. The experiment in a line: Antimicrobial activity against multidrug-resistant Acinetobacter baumannii AYE in presence of efflux pump inhibitor CCCP by microdilution broth method. It counts as functional.
Data set [19] concerns Klebsiella pneumoniae. The data set is described as follows: Antibacterial activity against multidrug-resistant Klebsiella pneumoniae NCTC 13368-7-R1 measured after 10 passages in presence of efflux pump inhibitor PAbetaN by microdilution broth method. The class given is functional.
The subject of data set [20] is Klebsiella pneumoniae. The experiment in a line: Antibacterial activity against multidrug-resistant Klebsiella pneumoniae NCTC 13368-7-R2 measured after 10 passages in presence of efflux pump inhibitor PAbetaN by microdilution broth method. It counts as functional.
Data set [21] deals with Klebsiella pneumoniae. The data set is described as follows: Antimicrobial activity against multidrug-resistant Klebsiella pneumoniae NCTC 13368 in presence of membrane permeabilizer PMBN by microdilution broth method. It counts as functional.
In data set [22] the test system is Klebsiella pneumoniae. The data set is described as follows: Antibacterial activity against multidrug-resistant Klebsiella pneumoniae NCTC 13368-7-R1 measured after 10 passages in presence of membrane permeabilizer PMBN by microdilution broth method. The class given is functional.
The subject of data set [23] is Klebsiella pneumoniae. The data set is described as follows: Antimicrobial activity against multidrug-resistant Klebsiella pneumoniae 16 in presence of membrane permeabilizer PMBN by microdilution broth method. It counts as functional.
Data set [24] relates to Pseudomonas aeruginosa. The data set is described as follows: Antimicrobial activity against multidrug-resistant Pseudomonas aeruginosa NCTC 13437 in presence of membrane permeabilizer PMBN by microdilution broth method. It counts as functional.
The subject of data set [25] is Klebsiella pneumoniae. The data set is described as follows: Ratio of MIC for multidrug-resistant Klebsiella pneumoniae NCTC 13368-7-R2 measured after 10 passages to MIC for multidrug-resistant Klebsiella pneumoniae NCTC 13368-7-R2 measured after 10 passages in presence of membrane permeabilizer PMBN. The class given is functional.
Data set [26] concerns Klebsiella pneumoniae. The experiment in a line: Ratio of MIC for multidrug-resistant Klebsiella pneumoniae NCTC 13368 to MIC for multidrug-resistant Klebsiella pneumoniae NCTC 13368 in presence of membrane permeabilizer PMBN. The class given is functional.
Data set [27] is described as follows: Solubility of the compound at 32 mg/L. It counts as physicochemical.
Data set [28] concerns Acinetobacter baumannii. The experiment in a line: Ratio of MIC for multidrug-resistant Acinetobacter baumannii AYE to MIC for multidrug-resistant Acinetobacter baumannii AYE in presence of efflux pump inhibitor PAbetaN. The class given is functional.
In data set [29] the test system is Acinetobacter baumannii. The data set is described as follows: Ratio of MIC for multidrug-resistant Acinetobacter baumannii AYE to MIC for multidrug-resistant Acinetobacter baumannii AYE in presence of efflux pump inhibitor CCCP. The class given is functional.
Data set [30] is described as follows: Ratio of MIC for Pseudomonas aeruginosa PAO1 to MIC for Pseudomonas aeruginosa harboring MexCD mutant. The class given is functional.
Another data set concerns Staphylococcus aureus. The data set is described as follows: Antibacterial activity against methicillin sensitive Staphylococcus aureus NCTC 6571 by microdilution broth method. The class given is functional.
The subject of data set [31] is Klebsiella pneumoniae. The data set is described as follows: Bactericidal activity against multidrug-resistant Klebsiella pneumoniae NCTC 13368 assessed as viable bacterial count at 4 times MIC measured after 4 to 24 hrs by Miles-Misra dilution method based time-kill assay. It counts as functional, organism-based.
Data set [32] relates to Klebsiella pneumoniae. The experiment in a line: Bactericidal activity against multidrug-resistant Klebsiella pneumoniae 16 assessed as viable bacterial count at 4 times MIC measured after 4 to 24 hrs by Miles-Misra dilution method based time-kill assay. It counts as functional, organism-based.
The test system of data set [33] is Klebsiella pneumoniae. The experiment in a line: Bactericidal activity against multidrug-resistant Klebsiella pneumoniae NCTC 13438 assessed as viable bacterial count at 4 times MIC measured after 4 to 24 hrs by Miles-Misra dilution method based time-kill assay. The class given is functional, organism-based.
For data set [34], the system named is Acinetobacter baumannii. The data set is described as follows: Bactericidal activity against Acinetobacter baumannii ATCC 17978 assessed as reduction in viable bacterial count at 4 times MIC measured up to 24 hrs by Miles-Misra dilution method based time-kill assay. The class given is functional, organism-based.
Data set [35] has as its system Acinetobacter baumannii. The experiment in a line: Bactericidal activity against Acinetobacter baumannii AYE assessed as reduction in viable bacterial count at 4 times MIC measured after 24 hrs by Miles-Misra dilution method based time-kill assay. The class given is functional, organism-based.
For data set [36], the system named is Acinetobacter baumannii. The experiment in a line: Bactericidal activity against Acinetobacter baumannii NCTC 13424 assessed as reduction in viable bacterial count at 4 times MIC measured after 24 hrs by Miles-Misra dilution method based time-kill assay. The class given is functional, organism-based.
In data set [37] the test system is Acinetobacter baumannii. The experiment in a line: Antimicrobial activity against Acinetobacter baumannii ATCC 17978 in presence of efflux pump inhibitor CCCP by microdilution broth method. The class given is functional.
In another data set the test system is Escherichia coli. The data set is described as follows: Antimicrobial activity against multidrug-resistant Escherichia coli NCTC 12923 assessed as mutation frequency at 4 times MIC measured after 48 hrs. The class given is functional.
Data set [38] relates to Acinetobacter baumannii. The experiment in a line: Antimicrobial activity against Acinetobacter baumannii ATCC 17978 assessed as mutation frequency at 4 times MIC measured after 48 hrs. The class given is functional.
For data set [39], the system named is Klebsiella pneumoniae. The data set is described as follows: Antimicrobial activity against Klebsiella pneumoniae M6 assessed as mutation frequency at 4 times MIC measured after 48 hrs. It counts as functional.

Converted amounts (≈) assume the structure as drawn. The source made the active and inactive calls. The rule behind the calls is not given here.

As to `COc1cc2c(cc1OCCCC(=O)Nc1cc(C(=O)Nc3ccc4oc(C(=O)N5CCSCC5)cc4c3)n(C)c1)N=C[C@@H]1CCCN1C2=O`, the Ratio in the data set on Klebsiella pneumoniae [1], with Klebsiella pneumoniae [2], in the data set on Klebsiella pneumoniae [25] and with Klebsiella pneumoniae [26] was 4 in each case. Moreover, the MIC in the data set on Klebsiella pneumoniae [3] was 1 µg/mL (≈ 1.43 µM); with Klebsiella pneumoniae [4], 32 µg/mL (≈ 45.8 µM); in the data set with Pseudomonas aeruginosa [5], > 32 µg/mL; in the data set on Acinetobacter baumannii [6], 1 to 2 µg/mL (≈ 1.43 to 2.86 µM); against Acinetobacter baumannii [7], 4 µg/mL (≈ 5.72 µM); against Acinetobacter baumannii [8] it was 4 µg/mL (≈ 5.72 µM). The minimal inhibitory concentration (MIC) against Acinetobacter baumannii [9] was 4 µg/mL (≈ 5.72 µM); in the data set with Klebsiella pneumoniae [13] it was 128 µg/mL (≈ 183 µM); with Klebsiella pneumoniae [14], > 128 µg/mL; in the data set on Klebsiella pneumoniae [15], 128 µg/mL; with Klebsiella pneumoniae [16], > 128 µg/mL; in the data set on Klebsiella pneumoniae [17], 4 µg/mL. Moreover, the MIC was 4 µg/mL in the data set with Acinetobacter baumannii [18]; 32 µg/mL with Klebsiella pneumoniae [19]; 128 µg/mL in the data set on Klebsiella pneumoniae [20]; 8 µg/mL in the data set on Klebsiella pneumoniae [21]; 8 µg/mL with Klebsiella pneumoniae [22]; 0.5 µg/mL with Klebsiella pneumoniae [23]. Also, the minimum inhibitory concentration (MIC) in the data set with Pseudomonas aeruginosa [24] lay within 2 to 32 µg/mL. In addition, the result in the data set on Acinetobacter baumannii [10] and with Klebsiella pneumoniae [11] was Active. For the same molecule, the result in the data set with Klebsiella pneumoniae [12] was inactive. For the same molecule, the solubility entry in [27] is listed as “Insoluble”.
On to `COc1cc2c(cc1OCCCC(=O)Nc1cc(C(=O)Nc3ccc4sc(C(=O)N(C)C)cc4c3)n(C)c1)N=C[C@@H]1CCCN1C2=O`, for which the Ratio with Acinetobacter baumannii [28] was 4; in the data set with Acinetobacter baumannii [29] it was 4; in data set [30], > 4. For the same molecule, the MIC in the data set on Staphylococcus aureus was 0.03 µg/mL (≈ 0.0457 µM); in the data set with Acinetobacter baumannii [37], 0.25 µg/mL. The Activity entry in the data set on Klebsiella pneumoniae [31] is “Below limit of detection”; in the data set with Klebsiella pneumoniae [32], “Below limit of detection”; with Klebsiella pneumoniae [33], “Below limit of detection”; in the data set with Escherichia coli, <4.3 ×10⁻⁸ No_unit; in the data set on Acinetobacter baumannii [38] it was <1.5 ×10⁻⁸ No_unit; in the data set with Klebsiella pneumoniae [39] it was 1 ×10⁻⁶ No_unit. The outcome with Acinetobacter baumannii [34] was Active. For the same molecule, the outcome in the data set on Acinetobacter baumannii [35] and in the data set on Acinetobacter baumannii [36] was inactive.
